Assay results taken from the Kinase Knowledgebase extract (Sharma et al. 2016).

Target: CDK2 (UniProt P24941)
Assay: Enzyme Assay
Settings: not given

Compound | IC50 [µM]
Nc1nc(OCC2COC3(CCCCC3)O2)c2nc[nH]c2n1 (stereo not drawn) | > 100
C=CCOc1nc(N)nc2[nH]cnc12 | > 100
c1nc(OCC2CCCCO2)c2nc[nH]c2n1 (stereo not drawn) | > 100
CCC(COc1nc(N)nc2[nH]cnc12)(OC)OC | > 100
CC1(C)OC2OC(COc3nc(N)nc4[nH]cnc34)C3OC(C)(C)OC3C2O1 (stereo not drawn) | > 100
Nc1nc(OCCc2ccccc2)c2nc[nH]c2n1 | > 100
Nc1nc(OCC23CC4CC(CC(C4)C2)C3)c2nc[nH]c2n1 | > 100
CC(C)C1(COc2nc(N)nc3[nH]cnc23)OCCO1 | > 100
CC(C)C(=O)COc1nc(N)nc2[nH]cnc12 | > 100
CC1(C)OCC(COc2nc(N)nc3[nH]cnc23)O1 (stereo not drawn) | > 100
Nc1nc(OCc2ccc3ccccc3c2)c2nc[nH]c2n1 | > 100
Nc1nc(OCC2CCCC2)c2nc[nH]c2n1 | > 100
COC1OC(COc2nc(N)nc3[nH]cnc23)C2OC(C)(C)OC12 (stereo not drawn) | > 100
Nc1nc(OCC2CCCCO2)c2nc[nH]c2n1 (stereo not drawn) | > 100
COC(COc1nc(N)nc2[nH]cnc12)(OC)c1ccccc1 | > 100
CCOC(C)(COc1nc(N)nc2[nH]cnc12)OCC | > 100
Nc1nc(OCc2cccc3ccccc23)c2nc[nH]c2n1 | > 100
C=CCOc1ncnc2[nH]cnc12 | > 100
C=C(C)C1CC=C(COc2nc(N)nc3[nH]cnc23)CC1 (stereo not drawn) | > 100
Nc1nc(OCC(O)CO)c2nc[nH]c2n1 (stereo not drawn) | > 100
COCC(COc1nc(N)nc2[nH]cnc12)OC (stereo not drawn) | > 100
Nc1nc(OCC2COc3ccccc3O2)c2nc[nH]c2n1 (stereo not drawn) | > 100

Same assay, conditions: concentration not given here

Compound | inhibition [%]
Cc1ccc(N=Nc2c(N)nc(N)nc2OCC2CCCCC2)cc1 | 6
